From US10703748B2, “Diazanaphthalen-3-yl carboxamides and preparation and use thereof” (Samumed, LLC, priority 2017, dated 2020)
Like-named read-outs stand apart in the source and are kept apart here.

Legend:
[1] = tested on: IL-6; test: IL-6 inhibition in LPS-stimulated human peripheral blood mononuclear cells (HTRF); details: Homo sapiens, PBMC; for EC50: 22 h; for inhibition at 10 µM: read-out: percentage in parentheses after EC50 >10
[2] = molecular target: GSK3β kinase (Homo sapiens, UniProt P49841); test: GSK3β kinase activity (Ser/Thr 09 peptide Z-lyte FRET assay); type: biochemical
[3] = molecular target: DYRK1A kinase (Homo sapiens, UniProt Q13627); test: DYRK1A kinase activity (Ser/Thr 18 peptide Z-lyte FRET assay); type: biochemical; details: recombinant DYRK1A, 30 μM ATP, one hour at room temperature;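 note: kinase activity read as coumarin/fluorescein emission ratio after development step, with unphosphorylated and phosphorylated peptide forms setting 0% and 100% controls, values from dose-response curves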
[4] = tested on: Wnt-responsive Sp5-Luc reporter in SW480 colon carcinoma cells; test: Screening assay for Wnt activity (Sp5-Luc reporter gene assay); details: Homo sapiens; for EC50: SW480; for inhibition at 10 µM: SW480, read-out: percent inhibition at 10 μM
[5] = tested on: SW480 colon carcinoma cells; test: Cell viability assay (CellTiter-Glo); details: Homo sapiens; for EC50: SW480, 96 h; for inhibition at 10 µM: SW480, read-out: percent inhibition at 10 μM
[6] = tested on: secreted cytokines TNFα, IL-6 and KC-GRO; test: Secreted cytokines in Lipopolysaccharide-stimulated BV-2 cells (Table 9 does not say which cytokine); type: cell-based, mouse; details: Mus musculus, BV-2, 5 h
[7] = tested on: α-smooth muscle actin (aSMA) positive LL29 cells; test: Inhibition of the fibrotic process: αSMA staining in TGF-β1 treated LL29 fibroblasts from IPF patients; details: Homo sapiens, Fibroblast; for EC50: 96 h; for inhibition at 10 µM: read-out: percentage in parentheses after EC50 >10
[8] = recombinant kinase, 46 μM ATP, one hour at room temperature, read-out: EC50

Sequence of GSK3β kinase (P49841 whole entry): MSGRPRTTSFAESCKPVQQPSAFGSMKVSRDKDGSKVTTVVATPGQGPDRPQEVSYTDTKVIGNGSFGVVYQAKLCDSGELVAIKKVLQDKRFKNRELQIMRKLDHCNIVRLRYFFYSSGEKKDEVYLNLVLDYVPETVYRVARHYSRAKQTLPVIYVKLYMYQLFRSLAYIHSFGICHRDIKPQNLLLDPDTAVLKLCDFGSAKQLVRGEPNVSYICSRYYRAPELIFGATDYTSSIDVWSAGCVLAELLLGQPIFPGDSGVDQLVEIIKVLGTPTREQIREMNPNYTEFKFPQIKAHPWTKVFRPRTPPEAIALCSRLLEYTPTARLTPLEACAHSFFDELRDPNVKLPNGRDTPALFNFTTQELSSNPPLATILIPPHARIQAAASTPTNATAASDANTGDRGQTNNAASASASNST

Row | Structure (SMILES) | EC50 [1] | EC50 [2, 8] | EC50 [3] | EC50 [4] | EC50 [5] | EC50 ([6]; read-out: EC50) | EC50 [7] | inhibition at 10 µM [1] | inhibition at 10 µM [4] | inhibition at 10 µM [5] | inhibition at 10 µM [7] | EC50 [2] | EC50 [6]
1 | Cn1cncc1-c1ccc2cnc(NC(=O)c3cccc(CN4CCCC4)c3)nc2c1 [Compound 1356, N-(7-(1-Methyl-1H-imidazol-5-yl)quinazolin-2-yl)-3-(pyrrolidin-1-ylmethyl)benzamide] | 8.06 µM | 2.78 µM | 0.005 µM | 2.57 µM | 8.6 µM | 1.1 µM | 3.6 µM | – | – | – | – | – | –
2 | Cn1cncc1-c1ccc2cnc(NC(=O)c3ccc4c(c3)CNC4)nc2c1 [Compound 1383, N-(7-(1-Methyl-1H-imidazol-5-yl)quinazolin-2-yl)isoindoline-5-carboxamide] | > 10 µM | 0.453 µM | 0.002 µM | > 10 µM | > 10 µM | 6.8 µM | 3.29 µM | 3.1% | 15.9% | 26.1% | – | – | –
3 | Cc1ncc(-c2ccc3cnc(NC(=O)[C@H]4CC[C@H](CO)CC4)nc3c2)o1 [Compound 1447, trans-4-(Hydroxymethyl)-N-(7-(2-methyloxazol-5-yl)quinazolin-2-yl)cyclohexane-1-carboxamide] | > 10 µM | 0.952 µM | 0.056 µM | 0.617 µM | > 10 µM | 0.605 µM | > 10 µM | 0% | – | 8.5% | 35.5% | – | –
4 | CN1CCC(Oc2cccc(C(=O)Nc3ncc4ccc(-c5cnco5)cc4n3)c2)CC1 [Compound 1497, 3-((1-Methylpiperidin-4-yl)oxy)-N-(7-(oxazol-5-yl)quinazolin-2-yl)benzamide] | > 10 µM | > 10 µM | 0.03 µM | > 10 µM | > 10 µM | 0.334 µM | 2.43 µM | 4.8% | 41.7% | 23.7% | – | – | –
5 | O=C(Nc1ncc2ccc(-c3cncs3)cc2n1)[C@H]1CC[C@H](CN2CC(F)C2)CC1 [Compound 1519, trans-4-((3-fluoroazetidin-1-yl)methyl)-N-(7-(thiazol-5-yl)quinazolin-2-yl)cyclohexane-1-carboxamide] | > 10 µM | 0.772 µM | 0.011 µM | 2.27 µM | > 10 µM | 0.069 µM | 2.4 µM | 2.9% | – | 17.1% | – | – | –
6 | O=C(Nc1ncc2ccc(-c3cncs3)cc2n1)C1CCN(C2COC2)CC1 [Compound 1523, 1-(Oxetan-3-yl)-N-(7-(thiazol-5-yl)quinazolin-2-yl)piperidine-4-carboxamide] | > 10 µM | 1.38 µM | 0.047 µM | > 10 µM | > 10 µM | 1.8 µM | > 10 µM | 6.2% | 13.7% | 15.1% | 24.9% | – | –
7 | CN1CCN(c2cc(C(=O)Nc3ncc4ccc(-c5cnc(N)s5)cc4n3)ccn2)CC1 [Compound 1589, N-(7-(2-aminothiazol-5-yl)quinazolin-2-yl)-2-(4-methylpiperazin-1-yl)isonicotinamide] | 2.88 µM | 9.99 µM | 0.005 µM | 0.184 µM | 0.331 µM | 0.221 µM | 0.911 µM | – | – | – | – | – | –
8 | Nc1cncc(-c2ccc3cnc(NC(=O)c4ccc(OC5CCNCC5)cc4)nc3c2)c1 [Compound 1710, N-(7-(5-Aminopyridin-3-yl)quinazolin-2-yl)-4-(piperidin-4-yloxy)benzamide] | > 10 µM | 8.04 µM | 0.002 µM | 3.38 µM | > 10 µM | 5.5 µM | > 10 µM | 7.2% | – | 39.6% | 10.4% | – | –
9 | CN1CCN(c2cc(C(=O)Nc3ncc4ccc(-c5ccc(N)nc5)cc4n3)ccn2)CC1 [Compound 1713, N-(7-(6-Aminopyridin-3-yl)quinazolin-2-yl)-2-(4-methylpiperazin-1-yl)isonicotinamide] | > 10 µM | – | 0.027 µM | 1.14 µM | 1.56 µM | – | 5.16 µM | 5.7% | – | – | – | > 10 µM | 1 µM
